Test results: patent US7888319B2, “Compositions and methods for promoting wound healing and tissue regeneration” (MUSC Foundation for Research Development, priority 2004, dated 2011)
Ends that are not written are not given here.

Tested on: 5 mm diameter excisional skin wounds
Assay: Small (5 mm) excisional skin wounds in adult mice, ACT 1 to ACT 5
Format: in vivo, mouse
Description: Anesthetized adult mice had 2 small (5 mm diameter) excisional skin wounds made by fine surgical scissors on the neck and (upper) back. The boundaries of the injuries were demarcated by a 5 mm wide circular template cut in a plastic sheet. 50-60 μl of a solution of 20% pluronic gel containing either no (control) or one of the ACT peptides (ACT 2-SEQ ID NO: 1, ACT 1-SEQ ID NO:2, ACT 3-SEQ ID NO:3, ACT 4-SEQ ID NO:4, ACT 5-SEQ ID NO:5) dissolved at concentrations of 100 μM were then applied to the excisional injuries. Control or ACT peptide-containing gel was applied subsequently 24 hours after the initial application. No further applications of control and ACT peptide-containing gel were made after the second application. […] Note that the same wound on the same animal is shown at the different time points during the healing time course. Anesthetized adult mice had 2 small (5 mm diameter) excisional skin wounds made by fine surgical scissors on the neck and (upper) back. The boundaries of the injuries were demarcated by a 5 mm wide circular template cut in a plastic sheet. 50-60 μl of a solution of 30% pluronic gel containing either no (control) or one of the ACT peptides (ACT 2—SEQ ID NO:1, ACT 1—SEQ ID NO:2, ACT 3—SEQ ID NO:3, ACT 4—SEQ ID NO:4, ACT 5—SEQ ID NO:5) dissolved at concentrations of 100 μM were then applied to the excisional injuries. Control or ACT peptide-containing gels were applied subsequently 24 hours after the initial application. No further applications of control and ACT peptide-containing gel were made after the second application. […] Note that the same wound on the same animal is shown at the different time points during the healing time course. The area of open wound was measured during the time course using NIH image according to standard protocols on multiple (˜5 mice per control or treatment condition) adult mice. These individual area measurements were then normalized to (i.e., divided by) the average area measured for the control injuries for a given time point, multiplied by 100 to give a % of unclosed wound relative to the control and then plotted against time. A Mann-Whitney U-test was used to statistically assess the effects of ACT peptides over the time course. […] These treatments provided results with significant p values.

Sequence: RPRPDDLEI (not fully specified (N-terminus)) [ACT 1, carboxy-terminal 9 amino acids of human Cx43; amino terminus biotinylated in tests]
- closure, inflammation, healing and scarring of injuries (100 μM in pluronic gel, 50-60 μl, applied at 0 and 24 hours, 240 hour time course (10 days), vs gel without peptide): closed faster, were significantly less inflamed in appearance, healed faster and scarred less
- size of improvement in wound closure over the control, compared among peptides (100 μM, over the time course): most pronounced improvements over the control
- wound closure rates (area of open wound as % of unclosed wound relative to the control) (100 μM, ~5 mice per condition, Mann-Whitney U-test over the time course): significantly improved wound closure rates
